# Patent publication US20230201217A1 (priority 2019, published 2023)
# What was measured:
# [1] = tested on: polychromatic erythrocytes in mouse bone marrow; assay: Mouse bone marrow in vivo micronucleus assay
# Method: Treatment resulted and clinical signs of lethargy and piloerection at doses of 200-400 mg/kg and in mortality of male and female ICR mice at doses of 300 and 400 mg/kg. The highest non-lethal dose was 250 mg/kg.
# These doses were based upon prior toxicology data indicating higher doses were associated with mortality in this species. […] A positive control group received a single oral dose of 60 mg/kg cyclophosphamide on Day 2, the day prior to the scheduled euthanasia. Each group consisted of 6 males. Males only were used as no significant differences in response related to gender were expected based upon prior toxicology and toxicokinetic data. All animals were euthanized on Day 3, the day following the final dose and discarded following bone marrow collection.
# All animals were observed twice daily for mortality and moribundity. Bone marrow collection for micronucleus evaluation was performed for 5 of the 6 animals in each group at the scheduled euthanasia (Day 3). All animals were discarded without necropsy. Bone marrow smears were prepared, and the coded slides were counted for polychromatic, normochromatic, and micronucleated polychromatic erythrocytes following the final bone marrow sample collection on Day 3.
# [2] = tested on: animal substance use models; details: i.p.; cited from earlier work
# cynomolgus monkeys = assay: 14-day nasogastric gavage GLP toxicity study in cynomolgus monkeys; format: in vivo, cynomolgus monkey; details: for Bone marrow, femur: Depletion, mixed; number with observation / Liver: Hypertrophy, hepatocellular, panlobular; number with observation / Thymus: Depletion, lymphoid, cortex; number with observation: 3 examined
# From the text: Assessments of neurobehavioral effects and general toxicity were based on mortality, functional observational battery (FOB) evaluations, clinical observations, body weight, and body temperature; ophthalmoscopic, electrocardiographic examinations; and anatomic and clinical pathology. The anatomical pathology evaluations included histopathology of a full list of tissues from all animals and a comprehensive evaluation of the central nervous system (including selected peripheral nerves) utilizing whole body perfusion and special stains. Bone marrow smears from all animals were evaluated microscopically. Complete differentials and myeloid-erythroid (ME) ratios were performed. Toxicokinetic assessment was conducted for the test article and metabolites.
compound,measurement,setting,value
"COCCC1CC2CN3CCc4c([nH]c5ccccc45)C(C(=O)OC)(C2)C13.Cl (stereo not shown) [18-MC HCl, 18-Methoxycoronaridine hydrochloride]",lethality,"[1]; GLP, 120 mg/kg/day group, within 3 hours of dosing",Lethality was observed in a single animal
same,incidence of micro-nucleated polychromatic erythrocytes (MPCE),"[1]; non-GLP, 250 mg/kg and less",No significant increase
same,highest non-lethal dose,"[1]; non-GLP, single oral dose, suspension in PBS pH 7.4, ICR mice",250 mg/kg
same,lowest dosage that significantly reduces drug self-administration,[2],≥ 10 mg/kg
same,HED of well tolerated dose,cynomolgus monkeys; 50 mg/kg/day,16 mg/kg/day
same,"Bone marrow, femur: Depletion, mixed, mild; number with observation",cynomolgus monkeys; 50 mg/kg/day F,0
same,"Bone marrow, femur: Depletion, mixed, minimal; number with observation",cynomolgus monkeys; 50 mg/kg/day F,0
same,"Bone marrow, femur: Depletion, mixed, moderate; number with observation",cynomolgus monkeys; 50 mg/kg/day F,0
same,"Bone marrow, rib: Depletion, mixed, mild; number with observation",cynomolgus monkeys; 50 mg/kg/day F,0
same,"Bone marrow, rib: Depletion, mixed, minimal; number with observation",cynomolgus monkeys; 50 mg/kg/day F,0
same,"Bone marrow, rib: Depletion, mixed, moderate; number with observation",cynomolgus monkeys; 50 mg/kg/day F,0
same,"Bone marrow, rib: Depletion, mixed; number with observation",cynomolgus monkeys; 50 mg/kg/day F,0
same,"Bone marrow, sternum: Depletion, mixed, mild; number with observation",cynomolgus monkeys; 50 mg/kg/day F,0
same,"Bone marrow, sternum: Depletion, mixed, minimal; number with observation",cynomolgus monkeys; 50 mg/kg/day F,0
same,"Bone marrow, sternum: Depletion, mixed, moderate; number with observation",cynomolgus monkeys; 50 mg/kg/day F,0
same,"Bone marrow, sternum: Depletion, mixed; number with observation",cynomolgus monkeys; 50 mg/kg/day F,0
same,"Liver: Hypertrophy, hepatocellular, panlobular, mild; number with observation",cynomolgus monkeys; 50 mg/kg/day F,3
same,"Liver: Hypertrophy, hepatocellular, panlobular, minimal; number with observation",cynomolgus monkeys; 50 mg/kg/day F,0
same,"Thymus: Depletion lymphoid, generalized, mild; number with observation",cynomolgus monkeys; 50 mg/kg/day F,1
same,"Thymus: Depletion lymphoid, generalized, moderate; number with observation",cynomolgus monkeys; 50 mg/kg/day F,0
same,"Thymus: Depletion lymphoid, generalized; number with observation",cynomolgus monkeys; 50 mg/kg/day F,1
same,"Thymus: Depletion, lymphoid, cortex, mild; number with observation",cynomolgus monkeys; 50 mg/kg/day F,0
same,"Thymus: Depletion, lymphoid, cortex, minimal; number with observation",cynomolgus monkeys; 50 mg/kg/day F,2
same,"Thymus: Depletion, lymphoid, cortex, moderate; number with observation",cynomolgus monkeys; 50 mg/kg/day F,0
same,mean cumulative body gain (Days 1-14),cynomolgus monkeys; 50 mg/kg/day F,-0.08 kg
same,"Bone marrow, femur: Depletion, mixed; number with observation",cynomolgus monkeys; 50 mg/kg/day F,0
same,"Liver: Hypertrophy, hepatocellular, panlobular; number with observation",cynomolgus monkeys; 50 mg/kg/day F,3
same,"Thymus: Depletion, lymphoid, cortex; number with observation",cynomolgus monkeys; 50 mg/kg/day F,2
same,"Bone marrow, femur: Depletion, mixed, mild; number with observation",cynomolgus monkeys; 50 mg/kg/day M,0
same,"Bone marrow, femur: Depletion, mixed, minimal; number with observation",cynomolgus monkeys; 50 mg/kg/day M,0
same,"Bone marrow, femur: Depletion, mixed, moderate; number with observation",cynomolgus monkeys; 50 mg/kg/day M,0
same,"Bone marrow, rib: Depletion, mixed, mild; number with observation",cynomolgus monkeys; 50 mg/kg/day M,0
same,"Bone marrow, rib: Depletion, mixed, minimal; number with observation",cynomolgus monkeys; 50 mg/kg/day M,0
same,"Bone marrow, rib: Depletion, mixed, moderate; number with observation",cynomolgus monkeys; 50 mg/kg/day M,0
same,"Bone marrow, rib: Depletion, mixed; number with observation",cynomolgus monkeys; 50 mg/kg/day M,0
same,"Bone marrow, sternum: Depletion, mixed, mild; number with observation",cynomolgus monkeys; 50 mg/kg/day M,0
same,"Bone marrow, sternum: Depletion, mixed, minimal; number with observation",cynomolgus monkeys; 50 mg/kg/day M,0
same,"Bone marrow, sternum: Depletion, mixed, moderate; number with observation",cynomolgus monkeys; 50 mg/kg/day M,0
same,"Bone marrow, sternum: Depletion, mixed; number with observation",cynomolgus monkeys; 50 mg/kg/day M,0
same,"Liver: Hypertrophy, hepatocellular, panlobular, mild; number with observation",cynomolgus monkeys; 50 mg/kg/day M,0
same,"Liver: Hypertrophy, hepatocellular, panlobular, minimal; number with observation",cynomolgus monkeys; 50 mg/kg/day M,0
same,"Thymus: Depletion lymphoid, generalized, mild; number with observation",cynomolgus monkeys; 50 mg/kg/day M,0
same,"Thymus: Depletion lymphoid, generalized, moderate; number with observation",cynomolgus monkeys; 50 mg/kg/day M,0
same,"Thymus: Depletion lymphoid, generalized; number with observation",cynomolgus monkeys; 50 mg/kg/day M,0
same,"Thymus: Depletion, lymphoid, cortex, mild; number with observation",cynomolgus monkeys; 50 mg/kg/day M,0
same,"Thymus: Depletion, lymphoid, cortex, minimal; number with observation",cynomolgus monkeys; 50 mg/kg/day M,2
same,"Thymus: Depletion, lymphoid, cortex, moderate; number with observation",cynomolgus monkeys; 50 mg/kg/day M,0
same,mean cumulative body gain (Days 1-14),cynomolgus monkeys; 50 mg/kg/day M,-0.22 kg
same,"Bone marrow, femur: Depletion, mixed; number with observation",cynomolgus monkeys; 50 mg/kg/day M,0
same,"Liver: Hypertrophy, hepatocellular, panlobular; number with observation",cynomolgus monkeys; 50 mg/kg/day M,0
same,"Thymus: Depletion, lymphoid, cortex; number with observation",cynomolgus monkeys; 50 mg/kg/day M,2
same,"Bone marrow, femur: Depletion, mixed, mild; number with observation",cynomolgus monkeys; 150 mg/kg/day F,0
same,"Bone marrow, femur: Depletion, mixed, minimal; number with observation",cynomolgus monkeys; 150 mg/kg/day F,0
same,"Bone marrow, femur: Depletion, mixed, moderate; number with observation",cynomolgus monkeys; 150 mg/kg/day F,0
same,"Bone marrow, rib: Depletion, mixed, mild; number with observation",cynomolgus monkeys; 150 mg/kg/day F,0
same,"Bone marrow, rib: Depletion, mixed, minimal; number with observation",cynomolgus monkeys; 150 mg/kg/day F,0
same,"Bone marrow, rib: Depletion, mixed, moderate; number with observation",cynomolgus monkeys; 150 mg/kg/day F,0
same,"Bone marrow, rib: Depletion, mixed; number with observation",cynomolgus monkeys; 150 mg/kg/day F,0
same,"Bone marrow, sternum: Depletion, mixed, mild; number with observation",cynomolgus monkeys; 150 mg/kg/day F,0
same,"Bone marrow, sternum: Depletion, mixed, minimal; number with observation",cynomolgus monkeys; 150 mg/kg/day F,0
same,"Bone marrow, sternum: Depletion, mixed, moderate; number with observation",cynomolgus monkeys; 150 mg/kg/day F,0
same,"Bone marrow, sternum: Depletion, mixed; number with observation",cynomolgus monkeys; 150 mg/kg/day F,0
same,"Liver: Hypertrophy, hepatocellular, panlobular, mild; number with observation",cynomolgus monkeys; 150 mg/kg/day F,2
same,"Liver: Hypertrophy, hepatocellular, panlobular, minimal; number with observation",cynomolgus monkeys; 150 mg/kg/day F,1
same,"Thymus: Depletion lymphoid, generalized, mild; number with observation",cynomolgus monkeys; 150 mg/kg/day F,0
same,"Thymus: Depletion lymphoid, generalized, moderate; number with observation",cynomolgus monkeys; 150 mg/kg/day F,0
same,"Thymus: Depletion lymphoid, generalized; number with observation",cynomolgus monkeys; 150 mg/kg/day F,0
same,"Thymus: Depletion, lymphoid, cortex, mild; number with observation",cynomolgus monkeys; 150 mg/kg/day F,2
same,"Thymus: Depletion, lymphoid, cortex, minimal; number with observation",cynomolgus monkeys; 150 mg/kg/day F,0
same,"Thymus: Depletion, lymphoid, cortex, moderate; number with observation",cynomolgus monkeys; 150 mg/kg/day F,1
same,mean cumulative body gain (Days 1-14),cynomolgus monkeys; 150 mg/kg/day F,-0.12 kg
same,"Bone marrow, femur: Depletion, mixed; number with observation",cynomolgus monkeys; 150 mg/kg/day F,0
same,"Liver: Hypertrophy, hepatocellular, panlobular; number with observation",cynomolgus monkeys; 150 mg/kg/day F,3
same,"Thymus: Depletion, lymphoid, cortex; number with observation",cynomolgus monkeys; 150 mg/kg/day F,3
same,"Bone marrow, femur: Depletion, mixed, mild; number with observation",cynomolgus monkeys; 150 mg/kg/day M,0
same,"Bone marrow, femur: Depletion, mixed, minimal; number with observation",cynomolgus monkeys; 150 mg/kg/day M,1
same,"Bone marrow, femur: Depletion, mixed, moderate; number with observation",cynomolgus monkeys; 150 mg/kg/day M,0
same,"Bone marrow, rib: Depletion, mixed, mild; number with observation",cynomolgus monkeys; 150 mg/kg/day M,0
same,"Bone marrow, rib: Depletion, mixed, minimal; number with observation",cynomolgus monkeys; 150 mg/kg/day M,1
same,"Bone marrow, rib: Depletion, mixed, moderate; number with observation",cynomolgus monkeys; 150 mg/kg/day M,0
same,"Bone marrow, rib: Depletion, mixed; number with observation",cynomolgus monkeys; 150 mg/kg/day M,1
same,"Bone marrow, sternum: Depletion, mixed, mild; number with observation",cynomolgus monkeys; 150 mg/kg/day M,0
same,"Bone marrow, sternum: Depletion, mixed, minimal; number with observation",cynomolgus monkeys; 150 mg/kg/day M,1
same,"Bone marrow, sternum: Depletion, mixed, moderate; number with observation",cynomolgus monkeys; 150 mg/kg/day M,0
same,"Bone marrow, sternum: Depletion, mixed; number with observation",cynomolgus monkeys; 150 mg/kg/day M,1
same,"Liver: Hypertrophy, hepatocellular, panlobular, mild; number with observation",cynomolgus monkeys; 150 mg/kg/day M,3
same,"Liver: Hypertrophy, hepatocellular, panlobular, minimal; number with observation",cynomolgus monkeys; 150 mg/kg/day M,0
same,"Thymus: Depletion lymphoid, generalized, mild; number with observation",cynomolgus monkeys; 150 mg/kg/day M,0
same,"Thymus: Depletion lymphoid, generalized, moderate; number with observation",cynomolgus monkeys; 150 mg/kg/day M,0
same,"Thymus: Depletion lymphoid, generalized; number with observation",cynomolgus monkeys; 150 mg/kg/day M,0
same,"Thymus: Depletion, lymphoid, cortex, mild; number with observation",cynomolgus monkeys; 150 mg/kg/day M,2
same,"Thymus: Depletion, lymphoid, cortex, minimal; number with observation",cynomolgus monkeys; 150 mg/kg/day M,1
same,"Thymus: Depletion, lymphoid, cortex, moderate; number with observation",cynomolgus monkeys; 150 mg/kg/day M,0
same,mean cumulative body gain (Days 1-14),cynomolgus monkeys; 150 mg/kg/day M,-0.28 kg
